Experimental data from the NIST ThermoML archive (doi:10.1021/acs.jced.9b00442).
Numbers after ± are expanded uncertainties.

Assays:
[1] = refractive index (Na D-line) (dimensionless); details: 100 kPa, Liquid, Standard Abbe refractometry
[2] = 100 kPa, Liquid; for electrical conductivity: Frequency=0.0006 MHz, Alternating current cell with electrodes; for viscosity: Concentric cylinders viscometry; for mass density: Vibrating tube method

CC[N+](C)(C)CCOC.O=S(=O)([N-]S(=O)(=O)C(F)(F)F)C(F)(F)F
Details | electrical conductivity [S/m] | mass density [kg/m3] | refractive index | viscosity [mPa·s]
[1], 283.15 K | – | – | 1.4164 ± 0.0017 | –
[1], 288.15 K | – | – | 1.415 ± 0.0017 | –
[1], 293.15 K | – | – | 1.4136 ± 0.0017 | –
[1], 298.15 K | – | – | 1.4121 ± 0.0017 | –
[1], 303.15 K | – | – | 1.4107 ± 0.0017 | –
[1], 308.15 K | – | – | 1.4092 ± 0.0017 | –
[1], 313.15 K | – | – | 1.4078 ± 0.0017 | –
[1], 318.15 K | – | – | 1.4065 ± 0.0017 | –
[1], 323.15 K | – | – | 1.4051 ± 0.0017 | –
[1], 328.15 K | – | – | 1.4037 ± 0.0017 | –
[1], 333.15 K | – | – | 1.4024 ± 0.0017 | –
[1], 338.15 K | – | – | 1.4011 ± 0.0017 | –
[1], 343.15 K | – | – | 1.3998 ± 0.0017 | –
[1], 348.15 K | – | – | 1.3985 ± 0.0017 | –
[1], 353.15 K | – | – | 1.3972 ± 0.0017 | –
[1], 358.15 K | – | – | 1.3959 ± 0.0017 | –
[2], 283.15 K | 0.141 ± 0.003 | – | – | –
[2], 288.15 K | 0.182 ± 0.004 | 1440.5 ± 1.1 | – | 100.4 ± 4.1
[2], 289.15 K | – | 1439.5 ± 1.1 | – | –
[2], 290.15 K | – | 1438.6 ± 1.1 | – | –
[2], 291.15 K | – | 1437.6 ± 1.1 | – | –
[2], 292.15 K | – | 1436.7 ± 1.1 | – | –
[2], 293.15 K | 0.23 ± 0.005 | 1435.7 ± 1.1 | – | 78.3 ± 3.2
[2], 294.15 K | – | 1434.8 ± 1.1 | – | –
[2], 295.15 K | – | 1433.8 ± 1.1 | – | –
[2], 296.15 K | – | 1432.8 ± 1.1 | – | –
[2], 297.15 K | – | 1431.9 ± 1.1 | – | –
[2], 298.15 K | 0.285 ± 0.006 | 1431 ± 1.1 | – | 61.5 ± 2.5
[2], 299.16 K | – | 1430 ± 1.1 | – | –
[2], 300.16 K | – | 1429.1 ± 1.1 | – | –
[2], 301.15 K | – | 1428.1 ± 1.1 | – | –
[2], 302.15 K | – | 1427.2 ± 1.1 | – | –
[2], 303.15 K | 0.347 ± 0.007 | 1426.2 ± 1.1 | – | 49.5 ± 2
[2], 304.15 K | – | 1425.3 ± 1.1 | – | –
[2], 305.15 K | – | 1424.4 ± 1.1 | – | –
[2], 306.15 K | – | 1423.4 ± 1.1 | – | –
[2], 307.15 K | – | 1422.5 ± 1.1 | – | –
[2], 308.15 K | 0.415 ± 0.008 | 1421.6 ± 1.1 | – | 40.5 ± 1.6
[2], 309.15 K | – | 1420.6 ± 1.1 | – | –
[2], 310.15 K | – | 1419.7 ± 1.1 | – | –
[2], 311.15 K | – | 1418.8 ± 1.1 | – | –
[2], 312.15 K | – | 1417.8 ± 1.1 | – | –
[2], 313.15 K | 0.489 ± 0.01 | 1416.9 ± 1.1 | – | 33.9 ± 1.4
[2], 314.15 K | – | 1416 ± 1.1 | – | –
[2], 315.15 K | – | 1415.1 ± 1.1 | – | –
[2], 316.15 K | – | 1414.1 ± 1.1 | – | –
[2], 317.15 K | – | 1413.2 ± 1.1 | – | –
[2], 318.15 K | 0.57 ± 0.011 | 1412.3 ± 1.1 | – | 28.2 ± 1.1
[2], 319.15 K | – | 1411.4 ± 1.1 | – | –
[2], 320.15 K | – | 1410.4 ± 1.1 | – | –
[2], 321.15 K | – | 1409.5 ± 1.1 | – | –
[2], 322.15 K | – | 1408.6 ± 1.1 | – | –
[2], 323.15 K | 0.659 ± 0.013 | 1407.7 ± 1.1 | – | 24 ± 1
[2], 324.15 K | – | 1406.8 ± 1.1 | – | –
[2], 325.15 K | – | 1405.9 ± 1.1 | – | –
[2], 326.15 K | – | 1404.9 ± 1.1 | – | –
[2], 327.15 K | – | 1404 ± 1.1 | – | –
[2], 328.15 K | – | 1403.1 ± 1.1 | – | 20.6 ± 0.8
[2], 329.15 K | – | 1402.2 ± 1.1 | – | –
[2], 330.15 K | – | 1401.3 ± 1.1 | – | –
[2], 331.15 K | – | 1400.4 ± 1.1 | – | –
[2], 332.15 K | – | 1399.4 ± 1.1 | – | –
[2], 333.15 K | – | 1398.5 ± 1.1 | – | 18 ± 0.7
[2], 334.15 K | – | 1397.6 ± 1.1 | – | –
[2], 335.16 K | – | 1396.7 ± 1.1 | – | –
[2], 336.15 K | – | 1395.8 ± 1.1 | – | –
[2], 337.15 K | – | 1394.9 ± 1.1 | – | –
[2], 338.15 K | – | 1394 ± 1.1 | – | 15.6 ± 0.6
[2], 339.15 K | – | 1393.1 ± 1.1 | – | –
[2], 340.15 K | – | 1392.2 ± 1.1 | – | –
[2], 341.15 K | – | 1391.3 ± 1.1 | – | –
[2], 342.15 K | – | 1390.4 ± 1.1 | – | –
[2], 343.15 K | – | 1389.5 ± 1.1 | – | 13.7 ± 0.6
[2], 344.15 K | – | 1388.6 ± 1.1 | – | –
[2], 345.15 K | – | 1387.7 ± 1.1 | – | –
[2], 346.15 K | – | 1386.7 ± 1.1 | – | –
[2], 347.15 K | – | 1385.8 ± 1.1 | – | –
[2], 348.15 K | – | 1384.9 ± 1.1 | – | 12.2 ± 0.5
[2], 349.15 K | – | 1384 ± 1.1 | – | –
[2], 350.15 K | – | 1383.1 ± 1.1 | – | –
[2], 351.15 K | – | 1382.2 ± 1.1 | – | –
[2], 352.15 K | – | 1381.3 ± 1.1 | – | –
[2], 353.15 K | – | 1380.4 ± 1.1 | – | 11 ± 0.4
[2], 354.15 K | – | 1379.5 ± 1.1 | – | –
[2], 355.15 K | – | 1378.6 ± 1.1 | – | –
[2], 356.15 K | – | 1377.7 ± 1.1 | – | –
[2], 357.15 K | – | 1376.9 ± 1.1 | – | –
[2], 358.15 K | – | 1376 ± 1.1 | – | 9.7 ± 0.4
[2], 359.15 K | – | 1375.1 ± 1.1 | – | –
[2], 360.15 K | – | 1374.2 ± 1.1 | – | –
[2], 361.15 K | – | 1373.3 ± 1.1 | – | –
[2], 362.16 K | – | 1372.4 ± 1.1 | – | –
[2], 363.15 K | – | 1371.5 ± 1.1 | – | 8.8 ± 0.4
